Laboratory results reported in PubChem BioAssay (NCI).
Several values for one entry are separate records, joined by “and”; a condition that tells them apart may be missing. Identical values can stand only once.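 Assay format: 96-well plates, 48-hour exposure. GI50 = concentration required for 50% inhibition of growth. TGI is the concentration that stops growth completely.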

Key:
Assay in all cases: growth of human tumour cells (NCI), 48 h
786-0 renal = test system: 786-0 renal
ACHN renal = test system: ACHN renal
HCT-15 colon = test system: HCT-15 colon
MDA-MB-231 breast = test system: MDA-MB-231 breast
NCI-H460 lung = test system: NCI-H460 lung
NCI/ADR-RES ovarian = test system: NCI/ADR-RES ovarian
OVCAR-3 ovarian = test system: OVCAR-3 ovarian
SF-295 CNS = test system: SF-295 CNS
SN12C renal = test system: SN12C renal
SK-MEL-28 melanoma = test system: SK-MEL-28 melanoma

| SMILES | GI50 (786-0 renal) | TGI (786-0 renal) | GI50 (ACHN renal) | TGI (ACHN renal) | GI50 (HCT-15 colon) | TGI (HCT-15 colon) | GI50 (MDA-MB-231 breast) | TGI (MDA-MB-231 breast) | GI50 (NCI-H460 lung) | TGI (NCI-H460 lung) | GI50 (NCI/ADR-RES ovarian) | TGI (NCI/ADR-RES ovarian) | GI50 (OVCAR-3 ovarian) | TGI (OVCAR-3 ovarian) | GI50 (SF-295 CNS) | TGI (SF-295 CNS) | GI50 (SN12C renal) | TGI (SN12C renal) | GI50 (SK-MEL-28 melanoma) | TGI (SK-MEL-28 melanoma) |
| --- | --- | --- | --- | --- | --- | --- | --- | --- | --- | --- | --- | --- | --- | --- | --- | --- | --- | --- | --- | --- |
| COc1cc(N2C(=O)[C@H](c3ccccc3)C2c2ccc(SC)cc2)cc(OC)c1OC (some centres not stated) | 0.0349 µM | 22.9 µM | 0.0454 µM | > 100 µM | 0.034 µM | > 100 µM | 0.0321 µM | 15.2 µM | 0.0346 µM | > 100 µM | 0.0335 µM | > 100 µM | 0.0265 µM | 0.0667 µM | 0.0352 µM | 6.94 µM | 0.05 µM | > 100 µM | – | – |
| C=CC(=O)N1C[C@@H]2CCOc3c(Cl)c(-c4c(O)cccc4F)c(F)c4ncnc(c34)N2C[C@H]1C | 14.7 µM | 29.4 µM | 10.5 µM | 22.2 µM | 11.8 µM | 26.6 µM | 11.5 µM | 27.7 µM | 15.2 µM | 32.1 µM | 17.4 µM | 62.6 µM | 6.11 µM | 18.5 µM | 15.6 µM | 32.5 µM | 13 µM | 31.3 µM | 13.5 µM | 27.1 µM |
| Clc1cc(Cl)c(OCCCCCCN2CCNCC2)c(Cl)c1 | 1.73 µM | 3.24 µM | 2.44 µM | 6.11 µM | 1.82 µM | 4.09 µM | 2.17 µM | 4.53 µM | 2.03 µM | 4.15 µM | 8.86 µM | 26.1 µM | 2.76 µM | 9.05 µM | 1.81 µM | 3.91 µM | 6.42 µM | 23.6 µM | 2.33 µM | 5.68 µM |
| COCCOC1=CC(=O)c2c(O)ccc(O)c2C1=O | 1.84 µM | 3.06 µM and 3.61 µM | 1.63 µM | 3.41 µM and 3.14 µM | 1.6 µM | 2.62 µM and 3.38 µM | 2.45 µM | 3.23 µM and 6.14 µM | 2.01 µM | 3.11 µM and 4.2 µM | – | 7.41 µM and 5.63 µM | 0.319 µM | 1.86 µM and 1.13 µM | 2.06 µM | 3.09 µM and 3.93 µM | 1.46 µM | 3.03 µM and 2.83 µM | 1.75 µM | 2.9 µM and 3.37 µM |
| O=c1cnnc(N/N=C/c2ccccc2O)[nH]1 | 5.1 µM | > 100 µM | 1.19 µM | > 100 µM | 0.539 µM | > 100 µM | 4.37 µM | > 100 µM | 1.56 µM | > 100 µM | 1.28 µM | > 64.5 µM | 0.324 µM | > 100 µM | 3.11 µM | > 100 µM | 4.21 µM | > 100 µM | 4.54 µM | 53.2 µM |
| N#CC(C#N)=C1CCOc2ccc(F)cc21 | 16.2 µM | 32.8 µM | 13.3 µM | 26 µM | 15.5 µM | 30.3 µM | 13 µM | 25.7 µM | 14.2 µM | 30.4 µM | 16.1 µM | 29.6 µM | 11.9 µM | 24.2 µM | 16.9 µM | 41 µM | 19.8 µM | 40.1 µM | > 100 µM | > 100 µM |
